Where “and” joins values, the source holds several entries; their conditions need not be identical. Equal values may be shown once.

The values below come from publication PMC7767381, “Exploring the Anti-Cancer Mechanism of Novel 3,4′-Substituted Diaryl Guanidinium Derivatives” (Pharmaceuticals, 2020).

One series has as its system HL-60 cells. Put plainly: Annexin V-FITC/PI flow cytometry apoptosis assay in HL-60. It is filed as cell-based, human. Conditions: 48 h; for induction of apoptosis: annexin V-FITC/PI; for viability at 5 µM: HL-60, 5 μM. As to the method:
We have previously reported that compound 1 induces 68.9 ± 0.1% apoptosis in HL-60 cells at a 10 μM concentration after 48 h. Accordingly, in order to evaluate the apoptotic effect of the most relevant derivatives (2, 3, and 4), HL-60 cells were treated with these compounds (at 5 µM, 5 µM, and 4 µM concentration, respectively) for 48 h, stained with annexin V-FITC/PI and analysed using flow cytometry (Figure 5).
Apoptosis was analysed using annexin V fluorescein isothiocyanate (FITC) and propidium iodide (PI). HL-60 cells were seeded at a density of 2 × 10^5 cells/mL in 12 well plates. Cells were then treated with either vehicle (0.5% ethanol), 2 (5 µM), 3 (5 µM), or 4 (4 µM) for 48 h. Following treatment, HL60 cells were collected and washed with annexin V binding buffer (5 mM HEPES, 70 mM NaCl, 1.25 mM CaCl2 pH 7.4) and stained with annexin V-FITC (iQ Corporation, Groningen, The Netherlands) for 20 min. Following washing with annexin V binding buffer, cells were resuspended in PI (0.5 µg/mL) in binding buffer and analysed on BD FACS Canto II flow cytometer (BD Sciences) using FloJo software (Ashland, OR, USA).
Figure 5 Annexin V-FITC vs. PI flow cytometry analysis of HL-60 cancer cells treated with compounds 3 (5 μM), 2 (5 μM) and 4 (4 μM) for 48 h. These figures are representative of three independent experiments. The viable cells, early apoptotic, necrotic and late apoptotic cells are represented by the lower left, lower right, upper left and upper right quadrants, respectively. TEXT PRINTED IN THE PICTURE: 3: 2.45; 32.6; 27.1; 37.8 | 2: 0.56; 11.3; 78.1; 9.96 | 4: 1.09; 40.2; 12.4; 46.2 DOUBTS OF THE COPYIST ABOUT THIS PICTURE: All quadrant numbers are in very small print with no measure or unit; they are listed in the order upper left, upper right, lower left, lower right / 3, upper right quadrant: 32.6, partly covered by data points, 3/8 and 6/8 uncertain / 3, lower right quadrant: 37.8, partly covered by data points, 37.8 or 37.6 / 3, lower left quadrant: 27.1, small print / 2, lower left quadrant: 78.1 or 76.1 / 2, lower right quadrant: 9.96 or 9.95 or 9.98 / 4, upper right quadrant: 40.2, partly covered by data points / 4, lower right quadrant: 46.2 or 48.2, partly covered by data points / The Control and Vehicle plots also print quadrant numbers (Control: 0.16, 1.41, 97.7, 0.77; Vehicle: 0.088, 1.65, 97.3, 0.94); they are not listed because they are not test substances […]
Apoptosis was analysed using annexin V fluorescein isothiocyanate (FITC) and propidium iodide (PI). HL-60 cells were seeded at a density of 2x10^5 cells/mL in 12 well plates. Cells were then treated with either vehicle (0.5% ethanol), 2 (5 µM), 3 (5 µM) or 4 (4 µM) for 48 hours.
Following treatment, HL60 cells were collected and washed with annexin V binding buffer (5 mM HEPES, 70 mM NaCl, 1.25 mM CaCl2 pH 7.4) and stained with annexin V -FITC (iQ Corporation, Groningen, The Netherlands) for 20 minutes. Following washing with annexin V binding buffer, cells were resuspended in PI (0.5 µg/mL) in binding buffer and analysed on BD FACS Canto II flow cytometer (BD Sciences) using FloJo software (Ashlan d, Oregon, United […]
Figure S13. Compounds 3 and 4 promote strong apoptosis when inhibiting HL-60 cell viability.
For flow cytometry, HL60 cells were seeded at a density of 2x10^5 cells/mL in 12 well plates.
Cells were then treated with either vehicle (0.5% ethanol), 2 (5 µM), 3 (5 µM) or 4 (4 µM) for 48 hours. After 48 hours, cells were collected and stained with annexin V – FITC and propidium iodide. Samples were analysed by flow cytometry using the BD FACs Canto II cytometer.
Columns and bars represent the mean ± S.D. of 3 independent experiments. Statistical analysis was performed using one-way ANOVA with Dunnett’s multiple comparisons test comparing vehicle to drug treated samples. *p<0.05 and ***p<0.001.
(1 picture or pasted object on this page, not shown here)

Setting [1] is: Homo sapiens, representative plot, read-out: viable cells (lower left quadrant).

Consider `Cl.Cl.N=C(N)Nc1ccc(Oc2cccc(NC(=N)Nc3ccc(Cl)c(C(F)(F)F)c3)c2)cn1` [Compound 2, 1-(4-Chloro-3-(trifluoromethyl)phenyl)-3-(3-((6-guanidinopyridin-3-yl)oxy)phenyl) guanidine dihydrochloride], for which the melting point fell in the range of 169 to 171 °C. The induction of apoptosis in the series on HL-60 cells (HL-60, 5 µM) is 30.7 ± 11.6% and ~30%. Also, the viability at 5 µM with HL-60 cells (setting [1]) is 78.1%.
`Cl.N=C(N)Nc1ccc(Oc2cccc(Nc3ccc(Cl)c(C(F)(F)F)c3)c2)cn1` [Compound 4, 1-(5-(3-((4-Chloro-3-(trifluoromethyl)phenyl)amino)phenoxy)pyridin-2-yl)guanidine hydrochloride]: the melting point lay within 89 to 91 °C. Also, the induction of apoptosis in the series with HL-60 cells (HL-60, 4 µM) is 92.7 ± 5.5% and 92%. Moreover, the viability at 4 µM with HL-60 cells (Homo sapiens, HL-60, 4 μM, representative plot, read-out: viable cells (lower left quadrant)) is 12.4%.
`Cl.N=C(N)Nc1ccc(Oc2cccc(Nc3ccc(Cl)c(C(F)(F)F)c3)c2)cc1` [Compound 3, 1-(4-(3-((4-Chloro-3-(trifluoromethyl)phenyl)amino)phenoxy)phenyl)guanidine hydrochloride] returned a melting point of 58 to 60 °C. Besides, in the series with HL-60 cells (HL-60, 5 µM), the induction of apoptosis is 82.5 ± 11.3% and 82%. In the series on HL-60 cells (setting [1]), the viability at 5 µM was found to be 27.1%.
